Test results reported in article PMC11009648, “Development of an orally bioavailable mSWI/SNF ATPase degrader and acquired mechanisms of resistance in prostate cancer” (Proceedings of the National Academy of Sciences of the …, 2024).
Like-named read-outs stand apart in the source and are kept apart here.

Experiments:
[1] = tested on: 22Rv1 AUR-3 cells; assay: CellTiter-Glo cell viability assay in AU-15330-resistant 22Rv1 AUR-3 cells (ABCB1 overexpression); format: cell-based, human
Excerpt: The rising importance of the mSWI/SNF complex as a therapeutic target and the success ([32], [33]) of developing next-generation PROTAC degraders targeting the mSWI/SNF complex prompted us to proactively study potential resistance mechanisms that cancer cells may develop in response to this class of compounds. To achieve this, we cultured 22Rv1 cells in either DMSO or a lethal dose of AU-15330 for 1 mo, refreshing the drug twice a week, until resistant cells emerged. Upon obtaining a population of resistant cells, we unbiasedly characterized the genomic and transcriptomic alterations using whole-exome sequencing and bulk RNA sequencing (RNA-seq), respectively (Fig. 3A).
(§1) Cells were seeded onto 96-well plates in appropriate culture media and allowed to adhere overnight prior to treatment. The next day, a nine-point serial dilution of the compounds was prepared and added to the plates. After treatment, the cells were then incubated for an additional 5 d. On the last day of treatment, the CellTiter-Glo cell viability assay (Promega) was then executed in accordance with the manufacturer’s guidelines. The signal (luminescence) from each well was determined using an Infinite M1000 Pro plate reader (Tecan). Relative viability was determined by dividing the signal from each well by the average of the control condition in each experiment. Finally, the data were analyzed and plotted using GraphPad Prism.

[2] = tested on: 22Rv1-wild type (WT) cells; assay: CellTiter-Glo cell viability assay in 22Rv1 wild type cells; format: cell-based, human; settings: Homo sapiens, 22Rv1, Fig. S5F; 22Rv1 WT
Protocol: as §1

[3] = Toxicity and maximum tolerated dose in tumor-free CB17 SCID mice; format: in vivo
Protocol: To evaluate the preclinical safety of AU-24118, we conducted extensive toxicity analyses with AU-24118 in mice. First, to establish the maximum tolerated dose, we implemented a dosage escalation experiment in CB17 SCID (severe combined immunodeficiency) tumor-free mice.
We further characterized the host organ (spleen, kidney, and liver) morphology and function upon AU-24118 treatment at the maximum tolerated dose (15 mg/kg) in CB17 SCID mice. […] Additionally, we evaluated liver and kidney function using a blood panel on a separate cohort of CB17 SCID mice that underwent 25 d treatment with AU-24118 at the maximum tolerated dose.
Organs (liver, spleen, and kidney) were harvested from mice and fixed in neutral buffered formalin (10%) and subsequently embedded in paraffin to generate tissue blocks. These blocks were then sectioned at a thickness of 4 µm and stained using Harris hematoxylin (Leica Surgipath) and alcoholic eosin-Y stain (Leica Surgipath). Staining was executed using the automated Leica autostainer-XL platform. Upon staining, the sections were subsequently analyzed by two pathologists on a brightfield microscope to determine morphology and architectural coherence. These pathological assessments were performed in a blinded manner. Detailed and comprehensive analysis of cellular and -subcellular level changes of organs were performed as previously described ([16]).

[4] = tested on: proteome of VCaP cells (SMARCA2, SMARCA4, PBRM1); assay: TMT mass spectrometry proteomics of VCaP cells; format: cell-based, human
Protocol: Cells were plated at 5 × 10^6 cells per well in a 6-well plate overnight prior to treatment with DMSO, 100 nM AU-24118, or 1 μM AU-15330 for 2 h. Whole cell lysates were prepared in RIPA buffer (Thermo Fisher) supplemented with tablets of cOmpleteTM protease inhibitor cocktail (Sigma-Aldrich). For each condition, 75 µg of total protein was labeled with TMT isobaric Label Reagent (Thermo Fisher) according to the manufacturer’s protocol and subjected to 12 fractions of liquid chromatography–MS (LC–MS)/MS analysis.

[5] = tested on: panel of human cancer or normal cell lines; assay: Cell-TiterGlo viability assays in a panel of cell lines; format: cell-based; settings: 5 d of treatment; sensitive: IC50 < 100 nM, resistant: IC50 > 100 nM
Protocol: as §1

[6] = tested on: SMARCA4, PBRM1 and SMARCA2 in 22Rv1-AUR-3 xenografts; assay: 22Rv1-AUR-3 xenograft pharmacodynamics study; settings: 5 d; AU-24118 15 mg/kg oral gavage three times per week; zosuquidar 40 mg/kg i.p.
Protocol: Lysates were prepared using radioimmunoprecipitation assay buffer (Thermo Fisher) with cOmpleteTM protease inhibitor cocktail tablets (Sigma-Aldrich) added. Total protein for each sample was determined using the DC Protein Assay (Bio-Rad) according to the manufacturer’s instructions. A standardized quantity of protein was resolved using NuPAGE Tris-Acetate Protein Gel (3 to 8%) (Thermo Fisher) or NuPAGE Bis-Tris Protein Gel (4 to 12%) (Thermo Fisher) and probed with primary antibodies as indicated. Following incubation with secondary antibodies conjugated with horseradish peroxidase, membranes were imaged on an Odyssey Fc Imager (LiCOR Biosciences).
For the 22Rv1-AUR-3 model, bilateral subcutaneous dorsal flank tumors were established by injecting 1 × 10^6 cells suspended in a 1:1 mixture of serum-free medium and Matrigel (BD Biosciences). Once tumors reached an average volume of 100 mm^3, mice were randomized and treated with either 60 mg/kg AU-15330 by retro-orbital vein injection 3 times every other day and with or without 10 mg/kg, 20 mg/kg, or 40 mg/kg of zosuquidar by intraperitoneal injection daily for 5 d per week. […] Animals harboring tumors approaching that size were immediately killed. All in vivo studies were approved by the U-M IACUC.

[7] = In vivo pharmacokinetics in rats; settings: plasma; for Cmax: read-out: Cmax/C0
Excerpt: All experimental procedures relating to animal care, handling, and treatment were approved by the Institutional Animal Ethics Committee of Aurigene Oncology Ltd. based on the Committee for Control and Supervision of Experiments on Animals guidelines. Animals were included for experimentation after 1 wk of acclimatization to standard laboratory conditions and were provided with reverse osmosis-treated water and rodent pellet diet ad libitum.
The pharmacokinetic profile of AU-24118 was studied in both mice and rats. For assessment of oral bioavailability, AU-24118 was administered by intravenous (i.v.) and oral (p.o.) routes at 1 mg/kg and 30 mg/kg doses, respectively (n = 3). For the oral arm, AU-24118 was administered as a solution formulation in 10% PEG200, 50% of 20% D-α-Tocopherol polyethylene glycol 1000 succinate and 40% of 1% Tween-80 in water while AU-24118 was formulated in 2% DMA and 10% HPβCD in saline (qs) for the intravenous administration.
Concentrations of AU-24118 were determined in plasma samples using a nonvalidated (fit for purpose) LC–MS/MS method in positive Multiple Reaction Monitoring mode with transition pair of m/z: 633.11→344.00. Either Carbamazepine (with a transition pair of m/z: 237.07→194.10) or Telmisartan (with a transition pair of m/z: 515.16→276.00) were used as internal standards. Sample processing was carried out by protein precipitation followed by evaporation method. Compound concentrations were calculated using Analyst® software 1.7.2 with linear/quadratic regression algorithm (with 1/×2 weighting factor) over a quantification range of 1 ng/mL to 2,500 ng/mL with the low and high ends of this range defining the lower limit of quantitation and upper limit of quantitation, respectively.

In the case of `Nc1nnc(-c2ccccc2O)cc1-c1ccc(N2CCC(N3CCC(c4ccc(OC5CCC(=O)NC5=O)cc4)CC3)CC2)cc1` (stereo not drawn) [AU-24118], the “sensitivity of AUR-3 cells versus WT” value ([1]; 22Rv1 AUR-3 cells (Fig. S5 E and F)) is reported as “dramatically less sensitive”, the IC50 ([1]; Homo sapiens, 22Rv1, Fig. S5F, 22Rv1 AUR-3) is reported as 458 nM and the IC50 [2] is reported as 9.42 nM. The “H&E staining of spleen, kidney and liver” value ([3]; CB17 SCID mice, 15 mg/kg) was “no discernible toxicity in normal tissues”, the “blood panel of liver and kidney function (ALT, AST, BUN, CREA)” value ([3]; CB17 SCID mice, 25 d treatment, 15 mg/kg) was “slight elevation in alanine transaminases” and the “tolerability (body weight, morbidity)” value ([3]; CB17 SCID tumor-free mice, 20 mg/kg three times weekly) was “noticeable weight loss after the first week, culminating in morbidity or fatality by the second week”. For the same compound, the “tolerability (body weight)” value ([3]; CB17 SCID tumor-free mice, up to 15 mg/kg three times weekly) was “well-tolerated responses”, the MTD ([3]; mouse, in vivo, oral, CB17 SCID mice, dosed three times weekly) was 15 mg/kg and the “selectivity of degradation, MS-based proteomics” value ([4]; VCaP cells, 100 nM AU-24118, 2 h) was “selectively degraded SMARCA2, SMARCA4, and PBRM1”. For the same compound, the “degradation of IMiD neosubstrates, proteomics” value ([4]; human cell line (VCaP)) was “not found to degrade any canonical immunomodulatory imide drug (IMiD) neosubstrates such as IKZF1, IKZF3, and GSPT1”, the “cell viability preference across diverse cell lines” value [5] was “notable preference for inhibiting transcription factor–addicted cancer cells” and the “degradation of target proteins in tumors, immunoblot” value [6] was “mild degradation of its target proteins”. It also gave a bioavailability ([7]; Wistar, rat, oral, rats, i.v. 1 mg/kg, p.o. 30 mg/kg, read-out: Oral bioavailability (%F)) of 16.3%, an AUC(0-inf) ([7]; iv, Wistar Rat, I.V. 1mg/kg) of 756 ng·h/mL and an AUC(0-t) ([7]; iv, Wistar Rat, I.V. 1mg/kg) of 670 ng·h/mL. It also gave a half-life ([7]; iv, Wistar Rat, I.V. 1mg/kg, read-out: Beta t1/2 (converted)) of 8.02 h, a clearance ([7]; iv, Wistar Rat, I.V. 1mg/kg, read-out: CI (Clearance)) of 22.1 mL/min/kg and a Cmax ([7]; iv, Wistar Rat, I.V. 1mg/kg) of 96.2 ng/mL. It also gave a Vd ([7]; iv, Wistar Rat, I.V. 1mg/kg, read-out: Vdss) of 13.3 L/kg, an AUC(0-t) ([7]; po, Wistar Rat, P.O. 30mg/kg) of 3280 ng·h/mL and a Cmax ([7]; po, Wistar Rat, P.O. 30mg/kg) of 184 ng/mL.
